Test results published in patent US20190053492A1, “SUBSTITUTED PYRIDINE COMPOUNDS AS PESTICIDES” (Bayer CropScience Aktiengesellschaft, priority 2016, published 2019).
Read-outs that look alike come from different tables or passages of the source.

Columns and labels:
[1] = tested on: Ctenocephalides felis; assay: Ctenocephalides felis oral test; format: in vivo; conditions: application rate 100 ppm in citrated cattle blood, after 2 days, adult cat fleas; for pest or weed control at 100 ppm: Ctenocephalides felis, po, 48 h, read-out: efficacy (kill in %)
In short: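 Kill (%) was recorded at 2 days. Compound, dissolved in DMSO and diluted into citrated cattle blood, was offered to roughly 20 unfed adult C. felis through parafilm.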

[2] = tested on: Phaedon cochleariae; assay: Phaedon cochleariae spray test; format: in vivo; conditions: after 7 days, Chinese cabbage leaf discs; for pest or weed control at 100 g/ha / pest or weed control at 500 g/ha: Phaedon cochleariae, foliar, 168 h, read-out: efficacy (beetle larvae killed)
In short: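 Larval kill read at day 7 as percent, where 100% means every larva dead and 0% none; larvae were placed on dried Brassica pekinensis leaf discs previously sprayed with the formulation (acetone/dimethylformamide solvent, alkylaryl polyglycol ether emulsifier, water).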

[3] = tested on: Lucilia cuprina; assay: Lucilia cuprina test; format: in vivo; conditions: application rate 100 ppm, after 2 days, L1 larvae
Description: Lucilia cuprina Test Solvent: dimethyl sulphoxide To produce a suitable active ingredient formulation, 10 mg of active ingredient are mixed with 0.5 ml of dimethyl sulphoxide, and the concentrate is diluted with water to the desired concentration. About 20 L1 larvae of the Australian sheep blowfly (Lucilia cuprina) are transferred into a test vessel containing minced horsemeat and the active ingredient formulation of the desired concentration. After 2 days, the kill in % is determined. 100% means that all the larvae have been killed; 0% means that no larvae have been killed.

[4] = log P by HPLC on reversed-phase column (C 18), EEC Directive 79/831 Annex V.A8; format: physicochemical; conditions: 55° C.; for LOGP_HCOOH: log P (HCOOH); for LOGP_NEUTRAL: log P, neutral range; for chromatographic logP: reversed-phase HPLC column (C 18)
Description: Temperature: 55° C. […] Called log P (HCOOH) in the table. […] Called log P (neutral) in the table.

[5] = tested on: Spodoptera frugiperda; assay: Spodoptera frugiperda spray test; format: in vivo; conditions: after 7 days, maize leaf discs; for pest or weed control at 100 g/ha / pest or weed control at 500 g/ha: Spodoptera frugiperda, foliar, 168 h, read-out: efficacy (caterpillars killed)
In short: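 Efficacy in % was scored at 7 days against armyworm caterpillars placed on dried, compound-sprayed Zea mays leaf discs. Compound was dissolved in acetone/dimethylformamide and diluted in water with 1000 ppm alkylaryl polyglycol ether. 100% means all caterpillars were killed.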

[6] = HPLC on reversed-phase column (C 18)
[7] = acidic range at pH 2.7, 0.1% aqueous formic acid and acetonitrile, HPLC on reversed-phase column (C 18)
[8] = pH 2.7, LC-MS acidic range, pH 2.7, 0.1% formic acid/acetonitrile, read-out: log P (acidic) / log P (HCOOH)

## CC(C)(C#N)NC(=O)c1cc(-c2ccc(OC(F)(F)F)cc2)cc(NC(=O)C2CC2)n1 [Example I-108]
[1]
  efficacy (kill in %): 100%
[2]; application rate 500 g/ha
  efficacy (beetle larvae killed): 83%
[3]
  efficacy (kill in %): 90%
[4]; acidic range pH 2.7, 0.1% aqueous formic acid and acetonitrile, reversed-phase column (C 18)
  LOGP_HCOOH: 3.77
[4]; [6]
  LOGP_NEUTRAL: 3.64
[5]; application rate 100 g/ha
  efficacy (caterpillars killed): 100%
[5]; application rate 500 g/ha
  efficacy (caterpillars killed): 83%

## CCCCNC(=O)c1cc(-c2ccc(OC(F)(F)F)cc2)cc(NC(=O)C2CC2)n1 [Example I-113]
[1]
  efficacy (kill in %): 100%
[2]; application rate 500 g/ha
  efficacy (beetle larvae killed): 100%
[3]
  efficacy (kill in %): 100%
[4]; [7]
  LOGP_HCOOH: 4.18
[4]; [6]
  LOGP_NEUTRAL: 4.06
[5]; application rate 100 g/ha
  efficacy (caterpillars killed): 83%
[5]; application rate 500 g/ha
  efficacy (caterpillars killed): 100%

## O=C(NC1COC1)c1cc(-c2ccc(OC(F)(F)F)cc2)cc(NC(=O)C2CC2)n1 [Example I-117]
[1]
  efficacy (kill in %): 100%
[2]; application rate 500 g/ha
  efficacy (beetle larvae killed): 100%
[3]
  efficacy (kill in %): 95%
[4]; [7]
  LOGP_HCOOH: 3.07
[4]; [6]
  LOGP_NEUTRAL: 2.95
[5]; application rate 100 g/ha
  efficacy (caterpillars killed): 100%
[5]; application rate 500 g/ha
  efficacy (caterpillars killed): 100%

## N#Cc1ccc(CNC(=O)c2cc(-c3ccc(S(=O)(=O)C(F)(F)F)cc3)cc(NC(=O)C3CC3)n2)cc1F [Example I-120]
[1]
  efficacy (kill in %): 100%
[2]; application rate 100 g/ha
  efficacy (beetle larvae killed): 100%
[2]; application rate 500 g/ha
  efficacy (beetle larvae killed): 100%
[3]
  efficacy (kill in %): 100%
[4]; [7]
  LOGP_HCOOH: 3.74
[4]; [6]
  LOGP_NEUTRAL: 3.65
[5]; application rate 100 g/ha
  efficacy (caterpillars killed): 100%
[5]; application rate 500 g/ha
  efficacy (caterpillars killed): 100%

## N#Cc1ccc(CNC(=O)c2cc(-c3ccc(OC(F)(F)F)cc3F)cc(NC(=O)C3CC3)n2)cc1 [Example I-124]
[1]
  efficacy (kill in %): 100%
[2]; application rate 100 g/ha
  efficacy (beetle larvae killed): 100%
[2]; application rate 500 g/ha
  efficacy (beetle larvae killed): 100%
[3]
  efficacy (kill in %): 100%
[4]; [7]
  LOGP_HCOOH: 3.87
[4]; [6]
  LOGP_NEUTRAL: 3.78
[5]; application rate 100 g/ha
  efficacy (caterpillars killed): 100%
[5]; application rate 500 g/ha
  efficacy (caterpillars killed): 100%

## O=C(NCC1CC1)c1cc(-c2ccc(OC(F)(F)F)cc2)cc(NC(=O)C2CC2)n1 [Example I-141]
[1]
  efficacy (kill in %): 100%
[2]; application rate 100 g/ha
  efficacy (beetle larvae killed): 100%
[2]; application rate 500 g/ha
  efficacy (beetle larvae killed): 100%
[3]
  efficacy (kill in %): 100%
[4]; [7]
  LOGP_HCOOH: 3.84
[5]; application rate 100 g/ha
  efficacy (caterpillars killed): 83%
[5]; application rate 500 g/ha
  efficacy (caterpillars killed): 100%

## N#Cc1ccc(CNC(=O)c2cc(-c3ccc(C(F)(F)C(F)(F)F)c(F)c3)cc(NC(=O)C3CC3)n2)cc1 [Example I-149, N-(4-Cyanobenzyl)-6-[(cyclopropylcarbonyl)amino]-4-[3-fluoro-4-(pentafluoroethyl)phenyl]pyridine-2-carboxamide]
[1]
  pest or weed control at 100 ppm: 100%
[2]; application rate 100 g/ha
  pest or weed control at 100 g/ha: 100%
[2]; application rate 500 g/ha
  pest or weed control at 500 g/ha: 100%
[3]
  efficacy (kill in %): 100%
[4]; [7]
  LOGP_HCOOH: 4.25
[4]; [6]
  LOGP_NEUTRAL: 4.14
[4]; [8]
  chromatographic logP: 4.25
[4]; pH 7.8, LC-MS neutral range, pH 7.8, ammonium hydrogencarbonate/acetonitrile, read-out: log P (neutral)
  chromatographic logP: 4.14
[5]; application rate 100 g/ha
  pest or weed control at 100 g/ha: 100%
[5]; application rate 500 g/ha
  pest or weed control at 500 g/ha: 100%

## N#Cc1ccc(CNC(=O)c2cc(-c3ccc(S(F)(F)(F)(F)F)cc3)cc(NC(=O)C3CC3)n2)cc1 [Example I-173]
[1]
  efficacy (kill in %): 100%
[2]; application rate 100 g/ha
  efficacy (beetle larvae killed): 100%
[2]; application rate 500 g/ha
  efficacy (beetle larvae killed): 100%
[3]
  efficacy (kill in %): 100%
[4]; [7]
  LOGP_HCOOH: 3.98
[4]; [6]
  LOGP_NEUTRAL: 4.31
[5]; application rate 100 g/ha
  efficacy (caterpillars killed): 100%
[5]; application rate 500 g/ha
  efficacy (caterpillars killed): 100%

## O=C(NCCC(F)(F)F)c1cc(-c2ccc(OC(F)(F)F)cc2)cc(NC(=O)C2CC2)n1 [Example I-176]
[1]
  efficacy (kill in %): 100%
[2]; application rate 100 g/ha
  efficacy (beetle larvae killed): 100%
[2]; application rate 500 g/ha
  efficacy (beetle larvae killed): 100%
[3]
  efficacy (kill in %): 100%
[4]; [6]
  LOGP_NEUTRAL: 3.83
[5]; application rate 100 g/ha
  efficacy (caterpillars killed): 100%
[5]; application rate 500 g/ha
  efficacy (caterpillars killed): 100%

## N#Cc1ccc(CNC(=O)c2cc(-c3ccc(SC(F)(F)C(F)F)cc3)cc(NC(=O)C3CC3)n2)cc1 [Example I-178, N-(4-Cyanobenzyl)-6-[(cyclopropylcarbonyl)amino]-4-{4-[(1,1,2,2-tetrafluoroethyl)sulphanyl]phenyl}pyridine-2-carboxamide]
[1]
  pest or weed control at 100 ppm: 100%
[2]; application rate 100 g/ha
  pest or weed control at 100 g/ha: 100%
[2]; application rate 500 g/ha
  pest or weed control at 500 g/ha: 100%
[3]
  efficacy (kill in %): 100%
[4]; [7]
  LOGP_HCOOH: 3.81
[4]; [8]
  chromatographic logP: 3.81
[5]; application rate 100 g/ha
  pest or weed control at 100 g/ha: 100%
[5]; application rate 500 g/ha
  pest or weed control at 500 g/ha: 100%

## N#Cc1ccc(CNC(=O)c2cc(-c3ccc(OC(F)(F)Cl)cc3)cc(NC(=O)C3CC3)n2)cc1 [Example I-190]
[1]
  efficacy (kill in %): 100%
[2]; application rate 100 g/ha
  efficacy (beetle larvae killed): 100%
[2]; application rate 500 g/ha
  efficacy (beetle larvae killed): 100%
[3]
  efficacy (kill in %): 100%
[4]; [7]
  LOGP_HCOOH: 4.09
[5]; application rate 100 g/ha
  efficacy (caterpillars killed): 100%
[5]; application rate 500 g/ha
  efficacy (caterpillars killed): 100%

## CC(F)(F)c1ccc(-c2cc(NC(=O)C3CC3)nc(C(=O)NCc3ccc(C#N)cc3)c2)cc1 [Example I-192]
[1]
  efficacy (kill in %): 100%
[2]; application rate 100 g/ha
  efficacy (beetle larvae killed): 100%
[2]; application rate 500 g/ha
  efficacy (beetle larvae killed): 100%
[3]
  efficacy (kill in %): 90%
[4]; [7]
  LOGP_HCOOH: 3.42
[4]; [6]
  LOGP_NEUTRAL: 3.40
[5]; application rate 100 g/ha
  efficacy (caterpillars killed): 100%
[5]; application rate 500 g/ha
  efficacy (caterpillars killed): 100%

## N#Cc1ccc(CNC(=O)c2cc(-c3ccc(OC(F)(F)F)cc3)cc(NC(=O)C3CC(F)(F)C3)n2)cc1 [Example I-213]
[1]
  efficacy (kill in %): 100%
[2]; application rate 100 g/ha
  efficacy (beetle larvae killed): 100%
[2]; application rate 500 g/ha
  efficacy (beetle larvae killed): 100%
[3]
  efficacy (kill in %): 100%
[4]; [7]
  LOGP_HCOOH: 4.14
[4]; [6]
  LOGP_NEUTRAL: 4.02
[5]; application rate 100 g/ha
  efficacy (caterpillars killed): 100%

## CC(C)C(=O)N(C)c1cc(-c2ccc(OC(F)(F)F)cc2)cc(C(=O)NCc2ccc(C#N)cc2)n1 [Example I-217]
[1]
  efficacy (kill in %): 80%
[2]; application rate 500 g/ha
  efficacy (beetle larvae killed): 83%
[3]
  efficacy (kill in %): 100%
[4]; [7]
  LOGP_HCOOH: 4.02
[4]; [6]
  LOGP_NEUTRAL: 3.89
[5]; application rate 100 g/ha
  efficacy (caterpillars killed): 100%
[5]; application rate 500 g/ha
  efficacy (caterpillars killed): 100%

## N#Cc1ccc(CNC(=O)c2cc(-c3ccc(C(F)(F)F)c(F)c3)cc(NC(=O)C3CC3)n2)cc1 [Example I-224]
[1]
  efficacy (kill in %): 100%
[2]; application rate 100 g/ha
  efficacy (beetle larvae killed): 100%
[2]; application rate 500 g/ha
  efficacy (beetle larvae killed): 100%
[3]
  efficacy (kill in %): 100%
[4]; [7]
  LOGP_HCOOH: 3.86
[4]; [6]
  LOGP_NEUTRAL: 3.82
[5]; application rate 100 g/ha
  efficacy (caterpillars killed): 100%
[5]; application rate 500 g/ha
  efficacy (caterpillars killed): 100%
